Publication PMC5820181 (Biochemistry, 2018)

What was measured:
[1] = biological target: T1, LipDH-mCherry; yeast lipoamide dehydrogenase (Saccharomyces cerevisiae, UniProt P09624); assay: UV-Vis absorbance of purified protein; assay type: binding; conditions: 50 mM phosphate pH 7.5, 1 mM EDTA; bound as purified
T1 sequence (P09624 22-499): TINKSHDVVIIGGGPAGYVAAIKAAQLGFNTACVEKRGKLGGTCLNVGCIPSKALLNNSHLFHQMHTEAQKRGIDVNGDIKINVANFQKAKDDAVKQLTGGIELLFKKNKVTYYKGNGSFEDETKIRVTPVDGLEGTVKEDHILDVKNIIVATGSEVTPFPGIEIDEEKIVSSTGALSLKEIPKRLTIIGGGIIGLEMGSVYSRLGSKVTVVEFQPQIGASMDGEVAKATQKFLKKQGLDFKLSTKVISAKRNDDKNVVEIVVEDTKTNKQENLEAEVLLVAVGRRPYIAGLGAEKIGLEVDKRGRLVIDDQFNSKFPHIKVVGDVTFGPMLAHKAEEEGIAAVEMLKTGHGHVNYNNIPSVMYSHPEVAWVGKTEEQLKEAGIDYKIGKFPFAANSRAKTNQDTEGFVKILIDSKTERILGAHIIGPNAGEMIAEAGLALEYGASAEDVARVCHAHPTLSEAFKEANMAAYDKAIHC

[2] = biological target: EcTrxR-mCherry (TrxR-mCherry); E. coli thioredoxin reductase (Escherichia coli, UniProt P0A9P4); assay: UV-Vis absorbance of purified protein; assay type: binding; conditions: 50 mM phosphate pH 7.5, 1 mM EDTA; bound as purified
[3] = biological target: T1, LipDH-mCherry; yeast lipoamide dehydrogenase; assay: quenching of flavin fluorescence; assay type: biochemical; conditions: 1 uM probe, 100 uM NADPH; poor substrate

EcTrxR-mCherry (TrxR-mCherry); E. coli thioredoxin reductase, sequence (P0A9P4 2-321): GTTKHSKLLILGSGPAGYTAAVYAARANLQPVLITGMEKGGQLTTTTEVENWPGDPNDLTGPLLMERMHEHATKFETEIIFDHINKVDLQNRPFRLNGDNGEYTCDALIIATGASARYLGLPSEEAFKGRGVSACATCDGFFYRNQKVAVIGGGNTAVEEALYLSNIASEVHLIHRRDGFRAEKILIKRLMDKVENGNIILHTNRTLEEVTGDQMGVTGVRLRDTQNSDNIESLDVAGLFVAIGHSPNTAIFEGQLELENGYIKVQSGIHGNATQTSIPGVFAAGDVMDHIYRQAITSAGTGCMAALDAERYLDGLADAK

With `Cc1cc2nc3c(=O)[nH]c(=O)nc-3n(C[C@H](O)[C@H](O)[C@H](O)COP(=O)(O)OP(=O)(O)OC[C@H]3O[C@@H](n4cnc5c(N)ncnc54)[C@H](O)[C@@H]3O)c2cc1C` [FAD] the “UV-Vis absorbance of purified protein” value [1] was “purified construct contained the expected complement of flavin and mCherry absorbance contributions” and the “UV-Vis absorbance of purified protein” value [2] was “found to contain the expected complement of flavin and mCherry”.
With `NC(=O)C1=CN([C@@H]2O[C@H](COP(=O)(O)OP(=O)(O)OC[C@H]3O[C@@H](n4cnc5c(N)ncnc54)[C@H](OP(=O)(O)O)[C@@H]3O)[C@@H](O)[C@H]2O)C=CC1` [NADPH] the “quenching of flavin fluorescence (456/520 nm) on reduction” value [3] was “the probe responds slowly to this pyridine nucleotide”.
